Test results as given in ChEMBL document CHEMBL5053503 (J Med Chem, 2021).
Active and inactive are the calls of the source. The rule behind the calls is not given here.

Experiments:
[1] = molecular target: T1, 5-hydroxytryptamine receptor 2B (Homo sapiens, UniProt P41595); assay: Displacement of [125I](+/-)DOI from human recombinant 5-HT2B receptor expressed in CHO cells at 10 uM measured after 60 mins by radioligand completion assay relative to control; assay type: cell-based
[2] = molecular target: T2, 5-hydroxytryptamine receptor 2A (Homo sapiens, UniProt P28223); assay: Displacement of [125I](+/-)DOI from human recombinant 5-HT2A receptor expressed in HEK293 cells at 10 uM measured after 60 to 90 mins by radioligand completion assay relative to control; assay type: cell-based; conditions: time 60-90 min
[3] = molecular target: T3, 5-hydroxytryptamine receptor 2C (Homo sapiens) (UniProt P28335); assay: Displacement of [125I](+/-)DOI from human recombinant 5-HT2C receptor expressed in CHO cells at 10 uM measured after 60 mins by radioligand completion assay relative to control; assay type: cell-based
T3 sequence (whole entry): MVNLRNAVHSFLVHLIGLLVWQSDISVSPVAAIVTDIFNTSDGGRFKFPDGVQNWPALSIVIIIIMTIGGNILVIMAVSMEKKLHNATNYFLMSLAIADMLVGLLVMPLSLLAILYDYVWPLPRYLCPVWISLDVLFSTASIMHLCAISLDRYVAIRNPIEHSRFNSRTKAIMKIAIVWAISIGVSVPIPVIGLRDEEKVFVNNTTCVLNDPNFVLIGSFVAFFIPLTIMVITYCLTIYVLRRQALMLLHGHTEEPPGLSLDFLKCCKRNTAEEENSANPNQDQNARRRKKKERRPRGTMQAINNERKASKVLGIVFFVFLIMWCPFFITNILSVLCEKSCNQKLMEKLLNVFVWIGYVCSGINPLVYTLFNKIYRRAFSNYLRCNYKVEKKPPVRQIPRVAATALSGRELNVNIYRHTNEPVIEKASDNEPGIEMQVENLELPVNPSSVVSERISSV

[4] = molecular target: T4, 5-hydroxytryptamine receptor 1A (Homo sapiens) (UniProt P08908); assay: Displacement of [3H][…] from human recombinant 5-HT1A receptor expressed in cells at 10 uM measured after 60 to 90 mins by radioligand completion assay relative to control; assay type: cell-based; conditions: time 60-90 min
T4 sequence (whole entry): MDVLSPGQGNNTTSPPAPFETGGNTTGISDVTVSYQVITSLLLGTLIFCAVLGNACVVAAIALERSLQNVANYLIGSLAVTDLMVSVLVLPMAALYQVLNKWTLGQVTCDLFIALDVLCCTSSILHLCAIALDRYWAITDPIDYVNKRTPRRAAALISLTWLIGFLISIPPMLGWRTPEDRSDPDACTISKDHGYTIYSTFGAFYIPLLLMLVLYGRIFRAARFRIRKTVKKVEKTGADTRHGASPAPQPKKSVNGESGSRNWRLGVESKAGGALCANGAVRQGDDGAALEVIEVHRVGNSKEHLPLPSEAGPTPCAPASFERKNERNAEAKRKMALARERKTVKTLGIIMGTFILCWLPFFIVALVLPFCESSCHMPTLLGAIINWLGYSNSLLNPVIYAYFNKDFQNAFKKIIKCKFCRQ

[5] = molecular target: T1, 5-hydroxytryptamine receptor 2B; assay: Displacement of [125I](+/-)DOI from human recombinant 5-HT2B receptor expressed in CHO cells at 100 nM measured after 60 mins by radioligand completion assay relative to control; assay type: cell-based
[6] = molecular target: T4, 5-hydroxytryptamine receptor 1A (Homo sapiens); assay: Displacement of [3H][…] from human recombinant 5-HT1A receptor expressed in cells at 100 nM measured after 60 to 90 mins by radioligand completion assay relative to control; assay type: cell-based; conditions: time 60-90 min
[7] = molecular target: T5, 5-hydroxytryptamine receptor 3A (Homo sapiens) (UniProt P46098); assay: Displacement of [3H]BRL43694 from human recombinant 5-HT3 receptor expressed in CHO cells at 10 uM measured after 120 mins by radioligand completion assay relative to control; assay type: cell-based
T5 sequence (whole entry): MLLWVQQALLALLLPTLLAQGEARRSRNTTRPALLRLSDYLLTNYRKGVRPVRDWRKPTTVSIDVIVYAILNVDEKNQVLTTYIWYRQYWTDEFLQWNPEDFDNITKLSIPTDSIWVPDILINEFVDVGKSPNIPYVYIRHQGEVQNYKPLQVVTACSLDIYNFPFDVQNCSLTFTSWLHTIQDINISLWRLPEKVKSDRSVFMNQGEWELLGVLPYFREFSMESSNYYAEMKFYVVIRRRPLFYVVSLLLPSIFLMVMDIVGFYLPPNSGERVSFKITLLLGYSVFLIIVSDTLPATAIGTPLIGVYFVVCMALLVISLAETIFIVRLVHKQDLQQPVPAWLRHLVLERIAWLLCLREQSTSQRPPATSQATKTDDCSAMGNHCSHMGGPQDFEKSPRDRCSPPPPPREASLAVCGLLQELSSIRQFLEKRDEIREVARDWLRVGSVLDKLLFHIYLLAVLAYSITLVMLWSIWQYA

[8] = molecular target: T2, 5-hydroxytryptamine receptor 2A; assay: Displacement of [125I](+/-)DOI from human recombinant 5-HT2A receptor expressed in HEK293 cells at 100 nM measured after 60 to 90 mins by radioligand completion assay relative to control; assay type: cell-based; conditions: time 60-90 min
[9] = molecular target: T5, 5-hydroxytryptamine receptor 3A (Homo sapiens); assay: Displacement of [3H]BRL43694 from human recombinant 5-HT3 receptor expressed in CHO cells at 100 nM measured after 120 mins by radioligand completion assay relative to control; assay type: cell-based
[10] = molecular target: T3, 5-hydroxytryptamine receptor 2C (Homo sapiens); assay: Displacement of [125I](+/-)DOI from human recombinant 5-HT2C receptor expressed in CHO cells at 100 nM measured after 60 mins by radioligand completion assay relative to control; assay type: cell-based
[11] = molecular target: T6, 5-hydroxytryptamine receptor 1A (Homo sapiens, UniProt P08908); assay: Displacement of [3H][…] from human recombinant 5-HT1A receptor expressed in CHO cells measured after 60 to 90 mins by radioligand completion assay relative to control; assay type: cell-based
T6 sequence (P08908 whole entry): T4 sequence (whole entry)

[12] = molecular target: T1, 5-hydroxytryptamine receptor 2B; assay: biochemical
[13] = molecular target: 5-hydroxytryptamine receptor 1B (Rattus norvegicus) (UniProt P28564); assay: Displacement of [125I]CYP from rat cerebral cortex 5-HT1B receptor at 10 uM measured after 120 mins by radioligand completion assay relative to control; assay type: tissue-based
[14] = system: Rattus norvegicus; assay type: functional; conditions: Sprague-Dawley, route iv
[15] = system: Rattus norvegicus; assay type: functional, organism-based; conditions: Sprague-Dawley, dose 1.0 mg/kg, route ip, time 15.0 min
[16] = system: Rattus norvegicus; assay type: functional; conditions: Sprague-Dawley, route ip, time 15 min
[17] = molecular target: T6, 5-hydroxytryptamine receptor 1A; assay: Displacement of [3H]5-CT from human recombinant 5-HT1A receptor expressed in CHO cells measured after 60 to 90 mins by radioligand completion assay relative to control; assay type: cell-based
[18] = system: Rattus norvegicus; assay type: functional; conditions: Sprague-Dawley, route iv; remark: listed apart in the source
[19] = molecular target: T7, 5-hydroxytryptamine receptor 2C (Homo sapiens, UniProt P28335); assay: biochemical
T7 sequence (P28335 whole entry): T3 sequence (whole entry)

[20] = molecular target: T6, 5-hydroxytryptamine receptor 1A; assay: Displacement of [3H][…] from human recombinant 5-HT1A receptor expressed in HEK cells measured after 60 to 90 mins by radioligand completion assay relative to control; assay type: cell-based
[21] = AUCinfinity in Sprague-Dawley rat at […], iv; assay type: ADME, organism-based; conditions: in vivo
[22] = molecular target: T1, 5-hydroxytryptamine receptor 2B; assay: Displacement of [3H]LSD from human recombinant 5-HT2B receptor expressed in CHO cells by radioligand completion assay relative to control; assay type: cell-based
[23] = molecular target: T2, 5-hydroxytryptamine receptor 2A; assay: Displacement of [3H]LSD from human recombinant 5-HT2A receptor expressed in HEK cells by radioligand completion assay relative to control; assay type: cell-based
[24] = molecular target: 5-hydroxytryptamine receptor 7 (Homo sapiens, UniProt P34969); assay: biochemical
[25] = Apparent volume of distributed in Sprague-Dawley rat at 5 mg/kg, iv; assay type: ADME, organism-based; conditions: in vivo, read-out: Vz
[26] = AUCinfinity in Sprague-Dawley rat at 5 mg/kg, iv; assay type: ADME, organism-based; set-up: time infinity, dose 5 mg/kg, route iv; conditions: in vivo
[27] = Clearence in Sprague-Dawley rat at 5 mg/kg, iv; assay type: ADME, organism-based; conditions: in vivo

Sequence of 5-hydroxytryptamine receptor 1B (Rattus norvegicus) (P28564 whole entry): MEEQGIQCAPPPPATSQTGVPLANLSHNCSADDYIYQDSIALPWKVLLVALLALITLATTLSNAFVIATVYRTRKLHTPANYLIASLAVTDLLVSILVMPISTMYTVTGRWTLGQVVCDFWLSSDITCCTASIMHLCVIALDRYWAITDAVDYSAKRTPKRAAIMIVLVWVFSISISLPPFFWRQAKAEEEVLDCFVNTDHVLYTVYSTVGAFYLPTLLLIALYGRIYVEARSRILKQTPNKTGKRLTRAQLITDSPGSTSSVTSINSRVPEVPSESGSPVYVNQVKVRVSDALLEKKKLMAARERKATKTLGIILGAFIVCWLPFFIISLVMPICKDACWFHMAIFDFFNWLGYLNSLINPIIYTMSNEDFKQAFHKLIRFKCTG
T2 sequence (P28223 whole entry): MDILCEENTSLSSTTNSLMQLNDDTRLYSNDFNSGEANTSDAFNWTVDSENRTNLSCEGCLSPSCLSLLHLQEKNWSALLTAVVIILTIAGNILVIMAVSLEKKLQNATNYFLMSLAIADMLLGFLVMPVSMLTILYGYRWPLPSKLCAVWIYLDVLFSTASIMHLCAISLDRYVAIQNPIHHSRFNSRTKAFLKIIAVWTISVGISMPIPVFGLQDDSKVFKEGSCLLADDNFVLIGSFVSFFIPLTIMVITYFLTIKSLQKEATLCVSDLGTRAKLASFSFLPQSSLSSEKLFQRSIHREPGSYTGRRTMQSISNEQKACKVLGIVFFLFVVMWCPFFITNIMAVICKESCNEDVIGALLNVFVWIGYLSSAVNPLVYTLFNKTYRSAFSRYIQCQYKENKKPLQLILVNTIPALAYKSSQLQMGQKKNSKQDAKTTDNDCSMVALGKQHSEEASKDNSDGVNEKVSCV
T1 sequence (P41595 whole entry): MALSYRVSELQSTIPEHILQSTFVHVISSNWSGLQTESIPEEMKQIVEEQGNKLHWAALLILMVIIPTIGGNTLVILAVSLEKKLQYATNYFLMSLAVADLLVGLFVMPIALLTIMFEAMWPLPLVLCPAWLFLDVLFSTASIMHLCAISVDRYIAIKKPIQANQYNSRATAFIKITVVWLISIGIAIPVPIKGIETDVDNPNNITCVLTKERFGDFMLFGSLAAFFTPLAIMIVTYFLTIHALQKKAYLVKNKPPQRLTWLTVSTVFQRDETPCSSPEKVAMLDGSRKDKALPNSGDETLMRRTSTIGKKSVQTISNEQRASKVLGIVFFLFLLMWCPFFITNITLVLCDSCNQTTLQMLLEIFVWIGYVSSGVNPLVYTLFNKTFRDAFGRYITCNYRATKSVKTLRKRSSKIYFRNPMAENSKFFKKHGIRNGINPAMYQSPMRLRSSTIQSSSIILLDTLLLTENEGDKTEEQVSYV
Sequence of 5-hydroxytryptamine receptor 7 (P34969 whole entry): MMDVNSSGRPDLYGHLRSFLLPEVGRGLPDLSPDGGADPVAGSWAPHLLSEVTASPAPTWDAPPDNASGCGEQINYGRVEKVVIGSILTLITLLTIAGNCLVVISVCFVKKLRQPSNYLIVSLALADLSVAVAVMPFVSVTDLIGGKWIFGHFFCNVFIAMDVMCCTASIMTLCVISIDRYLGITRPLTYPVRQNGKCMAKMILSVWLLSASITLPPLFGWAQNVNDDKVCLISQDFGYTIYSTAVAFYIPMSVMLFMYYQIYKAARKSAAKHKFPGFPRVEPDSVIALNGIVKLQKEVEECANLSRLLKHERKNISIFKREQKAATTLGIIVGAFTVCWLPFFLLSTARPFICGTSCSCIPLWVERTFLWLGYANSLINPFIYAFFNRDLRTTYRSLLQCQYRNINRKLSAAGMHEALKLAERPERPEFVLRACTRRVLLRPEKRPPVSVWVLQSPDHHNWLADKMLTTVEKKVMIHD

Row | SMILES | Activity ([1]; filed as agonist) [%] | Activity [3] [%] | Activity ([4]; filed as agonist) [%] | Activity [5] [%] | Activity [6] [%] | Activity [7] [%] | Activity [8] [%] | Activity [9] [%] | Activity [10] [%] | Ki [11] [nM] | Ki [12] [nM] | Activity [13] [%] | ED50 [14] [mg/kg] | ED50 [16] [mg/kg] | Ki [19] [nM] | Ki [23] [nM] | further results
1 | COC(=O)C1=COC[C@H]2CN3CCc4c([nH]c5ccccc45)[C@@H]3C[C@H]12 | 89.3 | -5.3 | 95.2 | 6.2 | 33.2 | 1.8 | 5.1 | -2.5 | -12.5 | – | – | – | – | – | – | – | Activity [2]: 36.5%
2 | CC[C@H]1CN2CCc3c([nH]c4cccc(O)c34)[C@@H]2C[C@@H]1/C(=C\OC)C(=O)OC | – | – | – | – | – | – | – | – | – | 294 | 508 | – | – | – | – | – | –
3 | CC[C@@H]1CN2CC[C@@]3(O)C(=Nc4cccc(OC)c43)[C@@H]2C[C@@H]1/C(=C\OC)C(=O)OC | – | -13.9 | – | -1.4 | 3.1 | 19.5 | -0.2 | 8.2 | -18.3 | – | – | -0.8 | – | – | – | – | Activity [1]: 12.4%; Activity [2]: 3.9%; Activity [4]: 1.2%
4 | O=C1c2ccccc2S(=O)(=O)N1CCCCN1CCN(c2ncccn2)CC1 [IPSAPIRONE] | – | – | – | – | – | – | – | – | – | – | – | – | 3.41 | 0.431 | – | – | Activity [15]: inactive; Ki [17]: 49.7 nM; ED50 [18]: 7.68 mg/kg
5 | CC[C@H]1CN2CCc3c([nH]c4cccc(OC)c34)[C@@H]2C[C@@H]1/C(=C\OC)C(=O)OC | – | – | 98.7 | – | – | 1.5 | 2.8 | 11.3 | – | 95.5 | 108 | 30.4 | 5.92 | 9.1 | 5430 | 1320 | Activity ([3]; filed as agonist): 77.9%; Ki [20]: 38.5 nM; AUC(0-inf) [21]: 495 ng·h/mL; Activity ([6]; filed as agonist): 58.9%; Ki [22]: 23 nM; ED50 [18]: 11.6 mg/kg
6 | C=C[C@H]1CN2CCc3c([nH]c4cccc(O)c34)[C@@H]2C[C@@H]1/C(=C\OC)C(=O)OC | – | – | – | – | – | – | – | – | – | 97.7 | 336 | – | – | – | – | – | –
7 | C=C[C@H]1CN2CCc3c([nH]c4cccc(OC)c34)[C@@H]2C[C@@H]1/C(=C\OC)C(=O)OC | – | – | – | – | – | – | – | – | – | 71.8 | 83.1 | – | 5.45 | […] | 1770 | 815 | Ki [20]: 32 nM; Ki [22]: 20 nM; Ki [24]: 870 nM
8 | CC[C@@H]1CN2CCc3c([nH]c4cccc(OC)c34)[C@@H]2C[C@@H]1/C(=C\OC)C(=O)OC | 90.7 | 14.7 | 76.7 | 23 | 9.7 | -12.7 | -0.9 | -9.1 | -8.2 | 5880 | 1260 | 8.2 | – | 26.8 | > 10000 | 5010 | Activity ([2]; filed as agonist): 49.9%; Vd [25]: 8 L/kg; AUC [26]: 849.8 ng·h/mL; CL [27]: 21.7 mL/min/kg
9 | CC[C@@H]1CN2CCc3c([nH]c4cccc(OC)c34)[C@H]2C[C@@H]1/C(=C\OC)C(=O)OC | 47.1 | 14.3 | – | -3.4 | -4.8 | 0.7 | 1.5 | 11.1 | 0.4 | – | – | 16.8 | – | – | – | – | Activity ([2]; filed as agonist): 68.1%; Activity [4]: 33.3%
